Experiments:
[1] = test system: H1N1pdm09 virus (A/Netherlands/602/2009); settings: for IC50: 1 h
[2] = test system: H1 ectodomain; settings: pH 7.5

Row | SMILES | Infection inhibition in single-concentration screen [1] | Plateau of infection inhibition in dose-response [1] | IC50 [1] [nM] | Competition with fluorescein-labelled S5 for binding to H1 protein [2]
1 | CC[C@H](C)[C@@H]1NC(=O)CNC(=O)[C@H](CC(N)=O)NC(=O)[C@@H]2CCCN2C(=O)[C@H](C(C)C)NC(=O)[C@H](Cc2ccccc2)NC(=O)[C@H](Cc2ccc(O)cc2)NC(=O)[C@@H]2CCCN2C(=O)[C@H](Cc2ccccc2)NC(=O)[C@H](Cc2ccc(O)cc2)NC(=O)[C@H](CC(C)C)NC(=O)[C@@H]2CSC(=N2)c2cc(ccn2)C[C@@H](C(=O)NCC(N)=O)NC(=O)[C@H](CCC(=O)O)NC(=O)[C@H](CC(C)C)NC(=O)[C@H]([C@@H](C)CC)NC(=O)[C@H](CC(N)=O)NC1=O [M7] | clear infection inhibition | plateau at less than full inhibition | 10.8 | compete
2 | CC[C@H](C)[C@@H]1NC(=O)[C@H](CO)NC(=O)CNC(=O)CNC(=O)[C@H](CC(=O)O)NC(=O)[C@@H]2CCCN2C(=O)[C@H](Cc2c[nH]c3ccccc23)NC(=O)[C@H](CC(N)=O)NC(=O)[C@H](Cc2ccccc2)NC(=O)[C@H](C(C)C)NC(=O)[C@H](Cc2ccccc2)NC(=O)[C@H](CC(C)C)NC(=O)[C@@H]2CSC(=N2)c2cc(ccn2)C[C@@H](C(=O)NCC(N)=O)NC(=O)[C@H](CCCCN)NC(=O)[C@H](CC(N)=O)NC(=O)[C@H]([C@@H](C)O)NC1=O [M5] | clear infection inhibition | plateau at less than full inhibition | 40.3 | compete

Reference: PMC10548512 (Chemical Science, 2023)
